Data set [1] addresses T1, DPP-IV purified from pig kidney (Sus scrofa, UniProt P22411).
T1 construct: DPP-rIV purified from pig kidney (Sigma); purchased Sigma; host or cells: pig kidney tissue
Nature of the data set: Test for determination of DPP-IV inhibitory activity (Gly-Pro-AMC fluorescence). In kind it is biochemical. The settings on record: room temperature, 60 minutes, 0.05 mM Gly-Pro-AMC. The procedure: Procedure of DPP-IV activity measurement is as follows. The reaction was performed in a 96-well plate.
Reaction solutions (100 μl/well) obtained by adding a test substance at various concentrations to a solution containing 50 mM of Tris HCl, 150 mM of sodium chloride, a 0.1% triton X-100, 0.3 mU/mI of DPP-rIV purified from pig kidney (Sigma), and 0.05 mM of Gly-Pro-AMC (Bachem) were incubated at a room temperature for 60 minutes, and then fluorescence intensities (Excitation: 355 nm, Emission: 460 nm) of the reaction solutions were measured (ARVO, Perkin Elmer). The data of 3 Wells under the same conditions were averaged.
The inhibition in the test group, relative to the solvent-added group was calculated, and the IC50 value thereof was obtained through logistic analysis.

The nature of the next data set: PK test in rats. In kind it is in vivo. The following applies: for BA, compound measured = compound tested / AUC(0-inf): male SD rats; for BA, compound measured = compound tested: oral 3 mg/kg vs intravenous 1 mg/kg; for AUC(0-inf): rat, oral 3 mg/kg, plasma, read-out: AUC0→∞, compound measured = compound tested. As to the method:
Each three animals were used for each point. Plasma was collected from the blood obtained by such a blood collection and concentration of the compound in plasma was measured using LC/MS/MS (2695, Waters and TSQ Quantum, ThermoFinnigan).
On the basis of concentration of the compound in the plasma determined by the measurement, an area under curve (AUC) of the drug concentration in plasma vs. time was calculated and, from the ratio of AUC by oral administration to AUC by intravenous injection, bioavailability (BA) was calculated. With regard to the BA value by administration of the compound of the present invention, each of concentrations in plasma of the compound X and the compound of the present invention was calculated.

Data set [2] in a line: PK test in cynomolgus monkey. In kind it is in vivo. The following applies: male cynomolgus monkeys; for BA, compound measured = compound tested: oral 3 mg/kg vs intravenous 1 mg/kg, monohydrochloride. The procedure: Male cynomolgus monkeys of four year old (K. K. Cary; the country of origin: Vietnam) were fasted for 16 hours before administration (feed was given after 4 hours from administration), a test compound dissolved in distilled water was orally administered at a dose of 3 mg/kg and blood was collected from forearm cephalic vein after 0.25, 0.5, 1, 2, 4, 8 and 24 hours from administration of the compound. In addition, cynomolgus monkeys to which no drug was administered for 7 days after the oral administration were fasted during 16 hours before administration (feed was given after 4 hours from administration), a test compound dissolved in distilled water was administered at the dose of 1 mg/kg from forearm cephalic vein and blood was collected from the forearm cephalic vein after 0.1, 0.25, 0.5, 1, 2, 4, 8 and 24 hours from administration of the compound. For each of the administrations, three animals were used. Plasma was collected by centrifugal separation of the blood obtained by such a blood collection and concentration of the compound in the plasma was measured by LC/MS/MS (2695, Waters and TSQ Quantum, ThermoFinnigan).

A further data set deals with T2, plasma DPP-IV activity (Mus musculus, UniProt P28843).
T2 construct: from tissue; host or cells: plasma of male ICR mice after oral dosing
Briefly: Test for DPP-IV inhibiting activity duration in mice (plasma DPP-IV activity after oral administration). In kind it is in vivo. The settings on record: male ICR mice, 10 mg/kg oral. The procedure:
Male ICR mice (Nippon SLC) were grouped into a test group and a control group of 5 subjects each. A test compound (10 mg/kg) was dissolved in purified water, and orally administered. Purified water alone was orally administered to the mice of the control group. One half and 12 hours after the administration, the blood was collected from each mouse through the orbital venous plexus thereof. The collected blood was immediately centrifuged to isolate the plasma, and the DPP-IV activity of the plasma was measured.
The process of plasma DPP-IV activity determination was as follows: The reaction was performed in a 96-well plate. 5 μl of the collected plasma was added to an aqueous solution (95 μl/well) comprises 25 mM Tris-HCl, 140 mM sodium chloride, 10 mM potassium-chloride, 1% bovine serum albumin, and 0.01 mM Gly-Pro-AMC (Bachem), and incubated at room temperature for 20 minutes. The fluorescence intensity (excitation 355 nm/emission 460 nm) of each well was measured (ARVO, Perkin Elmer).
The fluorescent intensity of the well, to which was added the plasma collected from the control group, was 100%. Based on it, the DPP-IV activity of the plasma collected from the test compound administered mice was calculated, and the activity difference between the control group and the test group was obtained. This indicated the inhibition in the test group.

Where [3] appears, read: 0.5 hour, read-out: Inhibitory Rate after 0.5 Hour from Administration.
Setting [4] is: 12 hours, read-out: Inhibitory Rate after 12 Hours from Administration.

Read-outs that look alike come from different tables or passages of the source.

As usually defined, the IC50 is the concentration at which inhibition is half-maximal.

T2 sequence (P28843 38-760 limits assumed): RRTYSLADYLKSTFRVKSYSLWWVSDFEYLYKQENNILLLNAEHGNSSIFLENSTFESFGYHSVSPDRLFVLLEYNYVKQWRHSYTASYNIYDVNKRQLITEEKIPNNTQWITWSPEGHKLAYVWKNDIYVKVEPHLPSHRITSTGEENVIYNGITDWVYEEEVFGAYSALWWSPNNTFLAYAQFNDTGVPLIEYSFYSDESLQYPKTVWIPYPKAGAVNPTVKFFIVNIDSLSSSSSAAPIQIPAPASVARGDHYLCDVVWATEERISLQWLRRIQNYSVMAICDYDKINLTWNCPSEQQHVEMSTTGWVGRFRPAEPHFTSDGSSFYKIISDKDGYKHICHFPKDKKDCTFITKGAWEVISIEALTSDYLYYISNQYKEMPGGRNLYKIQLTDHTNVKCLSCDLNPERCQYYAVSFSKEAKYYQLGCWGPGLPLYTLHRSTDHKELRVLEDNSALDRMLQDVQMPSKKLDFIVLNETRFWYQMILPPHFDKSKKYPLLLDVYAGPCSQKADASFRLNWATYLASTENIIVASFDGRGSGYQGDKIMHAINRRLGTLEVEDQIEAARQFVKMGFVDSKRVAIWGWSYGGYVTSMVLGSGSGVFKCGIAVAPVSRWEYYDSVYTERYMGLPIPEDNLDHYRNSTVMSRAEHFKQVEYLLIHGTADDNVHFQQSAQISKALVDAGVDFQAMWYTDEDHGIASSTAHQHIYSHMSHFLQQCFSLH
T1 sequence (P22411 whole entry): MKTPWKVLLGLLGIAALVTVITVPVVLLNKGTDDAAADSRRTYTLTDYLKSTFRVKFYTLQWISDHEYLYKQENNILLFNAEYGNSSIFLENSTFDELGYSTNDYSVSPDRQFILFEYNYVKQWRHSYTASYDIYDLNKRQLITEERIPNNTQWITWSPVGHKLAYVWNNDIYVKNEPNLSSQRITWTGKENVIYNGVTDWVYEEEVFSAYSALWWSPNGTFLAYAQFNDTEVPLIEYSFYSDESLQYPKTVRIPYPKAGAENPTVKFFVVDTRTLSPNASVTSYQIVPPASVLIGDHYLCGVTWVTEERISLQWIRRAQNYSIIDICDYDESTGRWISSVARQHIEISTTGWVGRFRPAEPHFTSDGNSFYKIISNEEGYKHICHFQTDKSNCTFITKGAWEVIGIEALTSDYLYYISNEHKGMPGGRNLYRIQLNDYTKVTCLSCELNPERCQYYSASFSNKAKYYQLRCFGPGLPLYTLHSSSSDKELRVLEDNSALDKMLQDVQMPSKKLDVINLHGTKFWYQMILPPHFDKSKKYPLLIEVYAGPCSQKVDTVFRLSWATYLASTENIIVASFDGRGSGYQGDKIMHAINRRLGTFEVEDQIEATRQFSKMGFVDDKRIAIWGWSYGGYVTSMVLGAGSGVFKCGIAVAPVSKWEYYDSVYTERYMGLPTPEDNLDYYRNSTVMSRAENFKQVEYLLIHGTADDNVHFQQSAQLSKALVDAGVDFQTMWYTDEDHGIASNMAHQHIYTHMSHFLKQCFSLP

In turn, `CC1(NCC(=O)N2C[C@@H](F)C[C@H]2C#N)CCN(C(=O)CO)CC1.Cl` [Compound X, (2S,4S)-4-fluoro-1-{[(1-glycoloyl-4-methylpiperidin-4-yl)amino]acetyl}pyrrolidine-2-carbonitrile monohydrochloride] returned an IC50 in data set [1] of 15 nM. Moreover, the entries for the “BA, compound measured = compound tested” value (in “PK test in rats”; in data set [2] (listed as compound X); in data set [2]) were 16%, 13% and 13 ± 5%, respectively. Further, the AUC(0-inf) in “PK test in rats” was 138 ng·h/mL; in data set [2] (cynomolgus monkey, oral 3 mg/kg, plasma, read-out: AUC0→∞, compound measured = compound tested), 278 ± 104 ng·h/mL.
As to `COCC(=O)N1CCC(NCC(=O)N2CCC[C@H]2C#N)CC1` [Compound Y], the values for the inhibition at 10 mg/kg at plasma DPP-IV activity (setting [3]) and on plasma DPP-IV activity (setting [4]) were 90% and 33%, respectively.
The molecule `CC(=O)OCC(=O)N1CCC(C)(NCC(=O)N2C[C@@H](F)C[C@H]2C#N)CC1` [Example 1, 2-[4-({2-[(2S,4S)-2-cyano-4-fluoropyrrolidin-1-yl]-2-oxoethyl}amino)-4-methylpiperdin-1-yl]-2-oxoethyl acetate monofumarate] gave an IC50 in data set [1] of 15 nM. In the data set “PK test in rats”, the “BA, compound measured = compound tested” value came out at 77% and the AUC(0-inf) came out at 43 ng·h/mL. Moreover, the “Increase of AUC (sum of tested compound and compound X in plasma) compared with AUC when compound X was administered” value in “PK test in rats” (rats, oral administration) is given as “about fourfold”. Moreover, the inhibition at 10 mg/kg at plasma DPP-IV activity (setting [3]) is 95%. At plasma DPP-IV activity (setting [4]), the inhibition at 10 mg/kg was determined as 84%. Moreover, the “AUC0→∞, compound measured = compound tested” value in data set [2] (oral 3 mg/kg, plasma) is “not detected”.
